Like-named read-outs stand apart in the source and are kept apart here.
How the values were obtained:
human CB1 receptor = target: T1, human CB1 receptor (Homo sapiens, UniProt P21554); assay: CB1 radioligand competitive binding assay ([3H]CP 55,940 displacement)
T1 construct: host or cells: CHO-K1

human CB2 receptor = target: T2, human CB2 receptor (Homo sapiens, UniProt P34972); assay: CB2 radioligand competitive binding assay ([3H]CP 55,940 displacement); conditions: for Selectivity CB2: fold difference between CB1 and CB2 binding, printed in the column of the receptor with the higher binding affinity
T2 construct: host or cells: CHO-K1
T2 sequence (P34972 whole entry): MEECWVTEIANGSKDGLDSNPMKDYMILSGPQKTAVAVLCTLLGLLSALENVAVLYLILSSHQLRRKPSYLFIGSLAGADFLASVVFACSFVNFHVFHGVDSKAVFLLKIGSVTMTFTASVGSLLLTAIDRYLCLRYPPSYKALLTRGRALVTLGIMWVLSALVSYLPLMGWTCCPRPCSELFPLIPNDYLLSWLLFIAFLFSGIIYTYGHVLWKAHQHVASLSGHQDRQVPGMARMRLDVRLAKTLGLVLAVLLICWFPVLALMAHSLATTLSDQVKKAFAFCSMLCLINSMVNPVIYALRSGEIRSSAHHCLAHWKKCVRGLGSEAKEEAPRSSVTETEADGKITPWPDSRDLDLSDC
Experimental: Compounds of the present disclosure were tested for CB1 receptor binding affinity and for CB2 receptor binding affinity. As used herein, “binding affinity” is represented by the IC50 value, which was experimentally determined as described herein. The lower the IC50 value the higher the binding affinity.
The membranes were prepared from CHO-K1 (Chinese hamster ovary) cells stably transfected with the human CB2 receptor (Cat. #ES-111-C; Perkin Elmer, Boston, Mass.). The cells were grown adherently and maintained in Ham's F12 medium containing 10% fetal bovine serum (FBS), penicillin, streptomycin and geneticin (G418) at 37° C. in a humid atmosphere of 5% CO2 following the manufacturer's instructions.
For membrane preparation the cells were washed with PBS and scraped off the plates in cold homogenization buffer (25 mM HEPES (pH 7.4), 2 mM EDTA) containing protease inhibitor cocktail (Sigma Cat. #P8340). The cell suspension was homogenized with a Pro-PK-01200D Polytron Homogenizer (Pro Scientific) and then centrifuged for 30 min at 120,000×g. The supernatant was discarded and the pellet was re-suspended in the homogenization buffer and stored at −80° C. until the time of use.
In this experiment, 3H radiolabeled CP 55,940, i.e. [3H]CP 55,940 (Perkin Elmer, Boston, Mass.), was used as a radioligand for the CB2 receptor to determine the binding affinity of compounds for the CB2 receptor (Scheme 4; above).
The competition binding experiments (single dose and dose-response) were performed by incubating 0.6 nM of [3H]CP55,940 (specific activity 101 Ci/mmol, Perkin Elmer) and different concentrations of compounds disclosed herein with membranes prepared as above from CHO-K1 cells expressing human CB2 receptor (1 μg of protein/well), 50 mM Tris-HCl (pH 7.4), 5 mM MgCl2, 1 mM CaCl2, and 2 mg/mL BSA.
For the dose-response experiments the test compounds were sequentially diluted to provide the desired concentration range for the IC50 determination. In each case the compounds were pre-incubated with the membrane for 20 min, before adding the radioligand.
After incubation with the radioligand for 60 min at 37° C., the incubation was terminated by rapid filtration of assay mixture through MultiScreen®HTS^+96-well filter plates (Millipore, Cat. #MSFCNXB), pre-soaked for 60 min with 50 mM Tris-HCl (pH 7.4) containing 0.33% polyethylenimine (PEI). The nonspecific binding (NSB) was determined in the presence of 10 μM unlabelled CP55,940. After drying the filter plate at 50° C. for at least 60 min, the filter-bound radioactivity was determined by scintillation spectrometry using the 1450 MicroBeta Plate Counter (Perkin Elmer, Boston, MA).

[1] = 0.8 nM [3H]CP 55,940, CHO-K1 membranes expressing human CB1 receptor, dose-response, read-out: CB1 IC50
[2] = 0.6 nM [3H]CP55,940, CHO-K1 membranes expressing human CB2 receptor, dose-response, read-out: CB2 IC50

T1 sequence (P21554 whole entry): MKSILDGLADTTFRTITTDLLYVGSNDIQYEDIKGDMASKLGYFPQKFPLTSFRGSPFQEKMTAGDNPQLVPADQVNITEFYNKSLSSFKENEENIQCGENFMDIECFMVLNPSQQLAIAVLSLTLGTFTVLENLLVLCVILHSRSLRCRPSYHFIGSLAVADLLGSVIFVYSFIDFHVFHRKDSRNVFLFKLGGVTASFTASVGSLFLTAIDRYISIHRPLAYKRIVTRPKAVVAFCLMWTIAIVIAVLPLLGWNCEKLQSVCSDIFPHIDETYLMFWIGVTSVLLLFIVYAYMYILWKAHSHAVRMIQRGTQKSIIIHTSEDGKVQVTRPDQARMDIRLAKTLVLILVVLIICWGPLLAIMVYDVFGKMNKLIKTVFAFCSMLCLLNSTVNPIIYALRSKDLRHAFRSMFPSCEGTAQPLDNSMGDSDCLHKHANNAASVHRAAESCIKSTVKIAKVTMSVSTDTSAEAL

| Compound | IC50 (human CB1 receptor) [nM] | IC50 (human CB2 receptor) [nM] | Selectivity CB2 (human CB2 receptor) [fold] | IC50 (human CB1 receptor; [1]) [nM] | IC50 (human CB2 receptor; [2]) [nM] | Selectivity CB1 (human CB1 receptor; fold difference between CB1 and CB2 binding, printed in the column of the receptor with the higher binding affinity) [fold] |
| --- | --- | --- | --- | --- | --- | --- |
| CCCCCc1cc2c(c(O)c1C(=O)NCC)[C@@H]1C=C(C)CC[C@H]1C(C)(C)O2 [Compound 3b, N-ethyl-1-hydroxy-6,6,9-trimethyl-3-pentyl-6a,7,8,10a-tetrahydro-6H-benzo[c]chromene-2-carboxamide] | 500 to 990 | 100 to 490 | 3.33 |  |  |  |
| CCCCCc1cc2c(c(O)c1C(=O)NC1CC1)[C@@H]1C=C(C)CC[C@H]1C(C)(C)O2 [Compound 6b, N-cyclopropyl-1-hydroxy-6,6,9-trimethyl-3-pentyl-6a,7,8,10a-tetrahydro-6H-benzo[c]chromene-2-carboxamide] | 100 to 490 | < 100 | 9.08 |  |  |  |
| CCCCCc1cc2c(c(O)c1C(=O)Nc1ccccc1)[C@@H]1C=C(C)CC[C@H]1C(C)(C)O2 [Compound 10b, 1-hydroxy-6,6,9-trimethyl-3-pentyl-N-phenyl-6a,7,8,10a-tetrahydro-6H-benzo[c]chromene-2-carboxamide] |  |  | 8.81 | < 100 | < 100 |  |
| CCCCCc1cc2c(c(O)c1C(=O)NCc1cccnc1)[C@@H]1C=C(C)CC[C@H]1C(C)(C)O2 [Compound 15b, 1-hydroxy-6,6,9-trimethyl-3-pentyl-N-(pyridin-3-ylmethyl)-6a,7,8,10a-tetrahydro-6H-benzo[c]chromene-2-carboxamide] |  |  | 19.07 | > 1000 | < 100 |  |
| CCCCCc1cc2c(c(O)c1C(=O)N1CCN(C(C)=O)CC1)[C@@H]1C=C(C)CC[C@H]1C(C)(C)O2 [Compound 36b, 1-(4-(1-hydroxy-6,6,9-trimethyl-3-pentyl-6a,7,8,10a-tetrahydro-6H-benzo[c]chromene-2-carbonyl)piperazin-1-yl)ethan-1-one] | > 1000 | > 1000 |  |  |  | 1.10 |
| CCCCCc1cc2c(c(O)c1C(=O)N1CCOCC1)[C@@H]1C=C(C)CC[C@H]1C(C)(C)O2 [Compound 39b, (1-hydroxy-6,6,9-trimethyl-3-pentyl-6a,7,8,10a-tetrahydro-6H-benzo[c]chromen-2-yl)(morpholino)methanone] | 100 to 490 | 100 to 490 | 1.53 |  |  |  |
| CCCCCc1cc2c(c(O)c1C(=O)N1CCCC1)[C@@H]1C=C(C)CC[C@H]1C(C)(C)O2 [Compound 41b, (1-hydroxy-6,6,9-trimethyl-3-pentyl-6a,7,8,10a-tetrahydro-6H-benzo[c]chromen-2-yl)(pyrrolidin-1-yl)methanone] | 100 to 490 | 100 to 490 | 2.06 |  |  |  |
| CCCCCc1cc2c(c(O)c1C(=O)N1Cc3ccccc3C1)[C@@H]1C=C(C)CC[C@H]1C(C)(C)O2 [Compound 43b, (1-hydroxy-6,6,9-trimethyl-3-pentyl-6a,7,8,10a-tetrahydro-6H-benzo[c]chromen-2-yl)(isoindolin-2-yl)methanone] | > 1000 | 100 to 490 | 8.33 |  |  |  |
| CCCCCc1cc2c(c(O)c1C(=O)N(CC)CC)[C@@H]1C=C(C)CC[C@H]1C(C)(C)O2 [Compound 50b, N,N-diethyl-1-hydroxy-6,6,9-trimethyl-3-pentyl-6a,7,8,10a-tetrahydro-6H-benzo[c]chromene-2-carboxamide] | 100 to 490 | < 100 | 4.38 |  |  |  |
| CCCc1cc2c(c(O)c1C(=O)NC)[C@@H]1C=C(C)CC[C@H]1C(C)(C)O2 [Compound 58b, 1-hydroxy-N,6,6,9-tetramethyl-3-propyl-6a,7,8,10a-tetrahydro-6H-benzo[c]chromene-2-carboxamide] | > 1000 | > 1000 | 6.87 |  |  |  |
